According to publication PMC12752627, “Discovery of a Potent and Selective TEAD Degrader with Durable Degradation Activity” (Advanced Science, 2025):

Key:
Assay type in all cases: cell-based
NCI-H226 cells = assay: Cell viability assay (CTG, 72 h) NCI-H226; details: Homo sapiens, NCI-H226, 72 h; 3-day antiproliferation; read-out: IC50 (nM ± SD), NCI-H226
Protocol: Cells were seeded at a density of 1000 cells per well in 96‐well flat‐bottomed cell culture plates and cultured overnight at 37 °C with 5% CO2 to allow for cell attachment. The following day, different concentrations of compounds were added using an I‐DOT dispenser. After 72 h, 25 µL of CellTiter‐Meiluncell Luminescent Cell Viability Reagent (Meilunbio, #PWL111‐2) was added and incubated for 15 min at room temperature. Luminescence signals were then measured using an Envision plate reader (Revvity). Data were analyzed using GraphPad Prism 9.5 software.^[ [30] ^]

A172 cells = assay: RNA-seq transcriptomics in A172 cells; details: 30 nM, 24 h
Protocol: Following treatment, cells were harvested, washed three times with pre‐chilled PBS, and stored at −80 °C. Total RNA was extracted using TRIzol reagent according to the manufacturer's instructions. mRNA was enriched using oligo(dT) magnetic beads, followed by fragmentation in First Strand Synthesis Reaction Buffer (5×) with divalent cations under elevated temperature.
RNA‐seq libraries were constructed using the ABclonal Fast RNAseq Lib Prep Kit V2 (#RK20306). […] Base calling was performed through real‐time fluorescence capture of polymerase‐driven extension reactions using fluorescently labeled dNTPs and adapter‐anchored primers. Gene‐level read counts were quantified using featureCounts (v2.0.6) and normalized to FPKM values by incorporating gene length. Differential expression analysis was conducted using the DESeq2 package (v1.42.0) for samples with biological replicates, based on the negative binomial distribution. P‐values were adjusted using the Benjamini–Hochberg method, with significance thresholds set at adjusted p ≤ 0.05 and |log2(fold change)| ≥ 1. For samples without replicates, edgeR (v4.0.16) was used, with scaling normalization applied to correct for sequencing depth differences. Functional enrichment analysis, including Gene Ontology (GO) and KEGG pathway analysis, was performed using clusterProfiler (v4.8.1), with correction for gene length bias. A significance threshold of adjusted p < 0.05 was applied. In addition, Gene Set Enrichment Analysis (GSEA) was performed to assess coordinated expression changes in predefined gene sets (GO and KEGG), with genes ranked by the magnitude of differential expression. All transcriptomic experiments were performed by Novogene Co., Ltd.

TEAD1 = TEAD1 (Homo sapiens, UniProt P28347); assay: Immunoblot in wild-type / CRBN-knockout HEK293T cells and rescue experiment; design: endogenous in cells; host or cells: HEK293T wild-type and CRBN-knockout; details: 6 h treatment
Sequence of TEAD1 (P28347 whole entry): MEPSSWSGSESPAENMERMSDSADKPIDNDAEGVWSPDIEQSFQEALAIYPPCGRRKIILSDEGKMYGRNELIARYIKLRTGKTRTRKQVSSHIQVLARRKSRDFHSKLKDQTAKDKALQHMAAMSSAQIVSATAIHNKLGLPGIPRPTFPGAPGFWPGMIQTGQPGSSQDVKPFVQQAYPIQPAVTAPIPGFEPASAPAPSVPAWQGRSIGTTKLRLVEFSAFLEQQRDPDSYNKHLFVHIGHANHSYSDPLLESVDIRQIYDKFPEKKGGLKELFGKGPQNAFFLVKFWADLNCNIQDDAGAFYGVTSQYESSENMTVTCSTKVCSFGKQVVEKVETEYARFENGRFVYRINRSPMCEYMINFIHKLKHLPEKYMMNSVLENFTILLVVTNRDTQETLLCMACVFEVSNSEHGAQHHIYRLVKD
Protocol: Immunoblotting was carried out as previously described.^[ [29] ^] Cells were seeded in 6‐well plates (Yeasen, #84011ES50) at a density of 1 million cells per well. The following day, cells were treated with compounds at the required concentrations, with the DMSO concentration kept below 0.4‰ to prevent toxic effects on the cells. The collected cell pellets were washed three times with PBS (Meilunbio, #MA0015) and resuspended in 120 µL of RIPA lysis buffer (Meilunbio, #MA0151) containing 1% protease inhibitor (Meilunbio, #MB2678‐2). The cells were then sonicated on ice and centrifuged at 12 000 rpm for 15 min at 4 °C to remove cellular debris. Protein concentrations were determined using the BCA Protein Quantification Kit (Meilunbio, #MA0082‐1). The protein samples were normalized, boiled at 99 °C for 10 min, and then subjected to electrophoresis on a 10% SDS‐PAGE gel. The separated protein bands were transferred to nitrocellulose membranes, blocked with TBST containing 5% BSA, and incubated with the indicated primary antibodies. Finally, the blots were imaged using an Amersham Typhoon NIR imager.

BMF, CTGF expression = assay: RT-qPCR in MSTO-211H cells
Protocol: Cells were seeded in 6‐well plates at a density of 1 million cells per well. The following day, different concentrations of compounds were added, and cells were collected after 24 h. For wash‐out experiments, cells were pre‐treated with compounds at indicated concentrations for 6 h, then cells were washed three times with PBS, and an equal volume of complete medium without compounds was added and incubated for another 18 h.
RNA was isolated and purified from the samples using the EZ‐10 Rotary Column Total RNA Isolation Kit (Sangon Biotech, B615012). After measuring the RNA concentration, 200 ng of purified RNA was used for genomic DNA removal and reverse transcription to cDNA with the HiScript III 1st Strand cDNA Synthesis Kit (+DNA wiper) (Vazyme, R312‐02). The resulting cDNA was then prepared into a reaction mix according to the ChamQ SYBR qPCR Mix (Vazyme, #q711‐02). Real‐time PCR analysis was performed using a QuantStudio 6 Pro real‐time PCR system (Thermo Fisher Scientific). Relative gene expression was calculated using the 2‐∆∆CT method. The primers used in this study were provided in the Supporting Information (Table S1, Supporting Information)

TEAD2 = target: T1, TEAD2 (Homo sapiens, UniProt Q15562); assay: HiBiT degradation assay, HEK293T HiBiT-TEAD2; details: 6 h
T1 construct: endogenous in cells; host or cells: HEK293T HiBiT knock-in
T1 sequence (Q15562 whole entry): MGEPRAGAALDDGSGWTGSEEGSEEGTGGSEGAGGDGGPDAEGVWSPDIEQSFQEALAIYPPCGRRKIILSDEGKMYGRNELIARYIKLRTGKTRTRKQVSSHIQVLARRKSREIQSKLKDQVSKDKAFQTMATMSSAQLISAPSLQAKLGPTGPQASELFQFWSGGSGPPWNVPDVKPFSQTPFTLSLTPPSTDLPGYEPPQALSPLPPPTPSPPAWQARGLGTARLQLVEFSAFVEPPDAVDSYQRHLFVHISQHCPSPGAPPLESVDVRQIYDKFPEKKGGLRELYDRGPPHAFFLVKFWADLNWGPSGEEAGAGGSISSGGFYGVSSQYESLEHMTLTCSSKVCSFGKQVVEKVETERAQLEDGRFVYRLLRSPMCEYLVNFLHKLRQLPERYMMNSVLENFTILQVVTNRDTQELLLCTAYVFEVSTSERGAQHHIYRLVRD
Protocol: HiBiT cells were inoculated into 96‐well flat‐bottomed tissue culture plates at a density of 50 000 cells per well, followed by adding degraders into the wells using the I‐DOT dispenser. After 6 h of incubation, the cells were lysed and assayed for degradation using the Nano‐Glo HiBiT Lysis Assay System (Promega, #N3030). Luminescence signals were read using an Envision plate reader (Revvity) and the data were analyzed using GraphPad Prism 9.5 software.
The ribonucleoprotein (RNP) complex was prepared by mixing 2 µg of NLS‐Cas9‐EGFP nuclease (Novoprotein, #E379‐01A), 50 pmol of sgRNA, 10 µL of electrotransfer solution, and 50 pmol of designed donor DNA, then incubated for 10 min at room temperature. One million HEK293T cells were resuspended in 10 µL of electrotransfection solution and mixed with 10 µL of the RNP complex. Electroporation was performed using a Celetrix SP100 electroporator at 480 V. After electroporation, the cells were transferred to antibiotic‐free DMEM complete medium for overnight culture. The following day, EGFP‐positive cells were sorted using a Sony MA 900 cell sorter, plated in a 96‐well cell culture plate (Servicebio, #CCP‐96H), and cultured for 4 weeks. After this period, positive clones were screened using the Nano‐Glo HiBiT Lytic Detection system (Promega, #N3030).

## CNC(=O)c1cc2c(c(F)c1-c1c(Cl)c(F)cc3c1C[C@@](CN[C@H]1CC[C@H](C(=O)N4CCC(CC5CCN(C(=O)COc6ccc(N7CCC(=O)NC7=O)c(C)c6)CC5)CC4)CC1)(c1ccccc1)O3)[C@@H](O)[C@@H](C)C2 [KG-FP-003]
NCI-H226 cells
  IC50: 27 ± 7 nM
A172 cells
  Share of the compound's regulated genes in the 56-gene overlap: 4%
A172 cells; VS Control (DMSO)
  DEG gene counts (Down): 611
  DEG gene counts (Up): 662
TEAD1
  TEAD degradation in CRBN-null HEK293T cells: minimal
BMF, CTGF expression
  Expression of TEAD target gene CTGF (qPCR): downregulation
  Expression of pro-apoptotic gene BMF (qPCR): dramatic upregulation
TEAD2
  DC50: 68 ± 15 nM
  TEAD2 Dmax: over 80%
TEAD2; HEK-293T
  Dmax: 84 ± 5%
